Test results from patent publication US20240116942A1, “SELECTIVE CDK 4/6 INHIBITOR CANCER THERAPEUTICS” (LUNELLA BIOTECH, INC., priority 2020, published 2024).

Legend:
[1] = system: CSCs (3D tumor sphere formation); conditions: mitochondrial inhibitors; background statement; cited from earlier work
MCF7 cells = test: mammosphere assay; format: cell-based; conditions: compared to Trilaciclib
Text: Moreover, CSCs are strikingly resilient and highly resistant to cellular stress, which allows them to undergo anchorage-independent growth, especially under conditions of low-attachment. As a consequence, they form 3D spheroids, which retain the properties of CSCs and stem cell progenitors. In contrast, when subjected to growth in suspension, most “bulk” cancer cells die, via anoikis—a specialized type of apoptosis. […] Therefore, 3D spheroid formation is a functional read-out for stemness in epithelial cancer cells and allows one to enrich for a population of epithelioid cells with a stem-like phenotype. These 3D spheroids are also known as mammospheres when they are prepared using breast cancer cells, such as MCF7, among others.

| SMILES | 3D tumor sphere formation [1] | inhibition of MCF7 cells in the mammosphere assay (MCF7 cells) |
| --- | --- | --- |
| Cc1n[nH]c(C)c1Cc1sc2c(c1C(=O)N1C[C@H](O)CO1)c(=O)n(C)c(=O)n2CC(C)C [AR-C155858] | successfully blocked |  |
| O=C(/C=C/c1ccc(O)c(O)c1)OCCc1ccccc1 [CAPE] | successfully blocked |  |
| CCCCC[C@H](CC(=O)NO)C(=O)N[C@H](C(=O)N1CCC[C@H]1CO)C(C)C [actinonin] | successfully blocked |  |
| CC[C@H]1OC(=O)[C@H](C)[C@@H](O[C@H]2C[C@@](C)(OC)[C@@H](O)[C@H](C)O2)[C@H](C)[C@@H](O[C@@H]2O[C@H](C)C[C@H](N(C)C)[C@H]2O)[C@](C)(O)C[C@@H](C)CN(C)[C@H](C)[C@@H](O)[C@]1(C)O [azithromycin] | successfully blocked |  |
| COc1nc2ccc(Br)cc2cc1[C@@H](c1ccccc1)[C@@](O)(CCN(C)C)c1cccc2ccccc12 [bedaquiline] | successfully blocked |  |
| COc1ccc2cc3[n+](cc2c1OC)CCc1cc2c(cc1-3)OCO2 [berberine] | successfully blocked |  |
| COc1ccc([C@@H]2CC(=O)c3c(O)cc(O[C@@H]4O[C@H](COC(=O)CC(C)(O)CC(=O)O)[C@@H](O)[C@H](O)[C@H]4O[C@@H]4O[C@@H](C)[C@H](O)[C@@H](O)[C@H]4O)cc3O2)cc1O (stereo partly drawn) [brutieridin] | successfully blocked |  |
| CCCCCCCCCCCCCC(=O)N1CCN(c2ccc(Nc3ncc4cc5n(c4n3)C3(CCCCC3)CNC5=O)nc2)CC1 [formula [2]] |  | remarkably improved inhibition |
| CCCCCCCCCCCCCCCC(=O)CCN1CCN(c2ccc(Nc3ncc4cc5n(c4n3)C3(CCCCC3)CNC5=O)nc2)CC1 [formula [3]] |  | remarkably improved inhibition |
| C[C@@H]1O[C@@H](O[C@@H]2[C@@H](Oc3cc(O)c4c(c3)O[C@H](c3ccc(O)cc3)CC4=O)O[C@@H](COC(=O)C[C@@](C)(O)CC(=O)O)[C@H](O)[C@H]2O)[C@@H](O)[C@H](O)[C@H]1O [melitidin] | successfully blocked |  |
| CC[C@H]1/C=C/C=C/C[C@@H](C)[C@H](O)[C@@](C)(O)C(=O)[C@@H](C)[C@H](O)[C@@H](C)C(=O)[C@@H](C)[C@H](O)[C@@H](C)/C=C/C(=O)O[C@@H]2[C@H](C)[C@H](CC1)O[C@]1(CC[C@H](C)[C@H](C[C@@H](C)O)O1)[C@H]2C [oligomycin] | successfully blocked |  |
| CN(C)c1cc(NC(=O)CNC(C)(C)C)c(O)c2c1C[C@H]1C[C@H]3[C@H](N(C)C)C(O)=C(C(N)=O)C(=O)[C@@]3(O)C(O)=C1C2=O [tigecycline] | successfully blocked |  |
